Test results: ChEMBL document CHEMBL5131467, “Multivalent peptide dendrimers inhibit the fusion of viral-cellular membranes and the cellular NF-κB signaling pathway” (Eur J Med Chem, 2022)
The source made the active and inactive calls. No cut-off for these calls is given here. Where a SMILES comes first, the peptide text is derived from it. Bridges are numbered along the chain shown (N, C = ends). Roman numbers before positions name the chains, in order. Side-chain parts run from the residue outwards. The star is where a group is joined. Acetyl(2-naphthyl) = O=C(Cc1ccc2ccccc2c1)*

Assays:
[1] = test system: Mus musculus; assay: Antiviral activity against Kunming mouse infected with Influenza A virus (A/Puerto Rico/8/1934(H1N1)) assessed as survival rate at 5 mg/kg, ip administered once a day for 5 days relative to control; type: functional; details: 120 h, time 5 day
[2] = test system: Influenza A virus; assay: Antiviral activity against Influenza A virus (A/Puerto Rico/8/1934(H1N1)) infected in MDCK cells assessed as reduction in virus induced cytopathic effect pretreated with compound incubated for 1 hrs by MTT assay; type: functional, organism-based
[3] = test system: Influenza A virus; assay: Antiviral activity against Influenza A virus (A/Puerto Rico/8/1934(H1N1)) infected in MDCK cells assessed as reduction in virus induced cytopathic effect pre-treated with virus followed by cell infection for 1 hr by MTT assay; type: functional, organism-based
[4] = test system: Influenza A virus; assay: Antiviral activity against Influenza A virus (A/Puerto Rico/8/1934(H1N1)) infected in MDCK cells assessed as reduction in virus induced cytopathic effect during infection incubated for 1 hr by MTT assay; type: functional, organism-based
[5] = test system: Influenza A virus; assay: Antiviral activity against Influenza A virus (A/Puerto Rico/8/1934(H1N1)) infected in MDCK cells assessed as reduction in virus induced cytopathic effect after infection incubated for 1 hr by MTT assay; type: functional, organism-based
[6] = Cytotoxicity against MDCK cells incubated for 1 hr by MTT assay; type: toxicity, cell-based, Canis lupus familiaris; details: dog
[7] = Cytotoxicity against MDCK cells by CCK-8 assay; type: toxicity, cell-based, Canis lupus familiaris; details: dog
[8] = Selectivity index, ratio of CC50 for MDCK cells to IC50 antiviral activity against Influenza A virus (A/Puerto Rico/8/1934(H1N1)) infected in MDCK cells assessed as reduction in virus induced cytopathic effect pre-treated with virus; type: toxicity, cell-based; details: dog, read-out: Selectivity Index
[9] = test system: Influenza A virus; assay: Antiviral activity against Influenza A virus (A/Puerto Rico/8/1934(H1N1)) infected in MDCK cells assessed as reduction in M1 mRNA level at 1 ug/ml measured after 24 hrs post infection by qRT-PCR analysis; type: functional, organism-based; details: dose 1.0 µg/ml
[10] = test system: Influenza A virus; assay: Antiviral activity against Influenza A virus (A/Puerto Rico/8/1934(H1N1)) infected in MDCK cells assessed as reduction in HA mRNA level at 1 ug/ml measured after 24 hrs post infection by qRT-PCR analysis; type: functional, organism-based; details: dose 1.0 µg/ml
[11] = test system: Influenza A virus; assay: Antiviral activity against Influenza A virus A/Aichi/2/68(H3N2) infected in MDCK cells incubated for 1 hr by MTT assay; type: functional, organism-based
[12] = test system: Influenza A virus; assay: Antiviral activity against Influenza A virus A/FM/1/47 infected in MDCK cells incubated for 1 hr by MTT assay; type: functional, organism-based; details: A/FM/1/47, MDCK
[13] = test system: Influenza A virus; assay: Antiviral activity against Influenza A virus 699(H3) clinical isolate infected in MDCK cells incubated for 1 hr by MTT assay; type: functional, organism-based
[14] = test system: Influenza B virus; assay: Antiviral activity against Influenza B virus 699[…] clinical isolate infected in MDCK cells incubated for 1 hr by MTT assay; type: functional, organism-based
[15] = test system: Influenza A virus; assay: Antiviral activity against Influenza A virus (A/Puerto Rico/8/1934(H1N1)) infected in MDCK cells assessed as reduction in viral nucleoprotein expression level at 2.5 ug/ml pre-treated with virus measured after 24 hrs post infection by indirect immunofluorescence assay; type: functional, organism-based; details: dose 2.5 µg/ml
[16] = test system: Influenza A virus; assay: Antiviral activity against Influenza A virus (A/Puerto Rico/8/1934(H1N1)) infected in MDCK cells assessed as reduction in viral nucleoprotein expression level at 2.5 ug/ml pretreated with compound measured after 24 hrs post infection by indirect immunofluorescence assay; type: functional, organism-based; details: dose 2.5 µg/ml
[17] = test system: Influenza A virus; assay: Antiviral activity against Influenza A virus (A/Puerto Rico/8/1934(H1N1)) infected in MDCK cells assessed as reduction in viral nucleoprotein expression level at 2.5 ug/ml during infection measured after 24 hrs post infection by indirect immunofluorescence assay; type: functional, organism-based; details: dose 2.5 µg/ml
[18] = test system: RAW264.7; assay: Anti-inflammatory activity against mouse RAW264.7 cells assessed as reduction in LPS induced TNF alpha level at 5 ug/ml by qRT-PCR analysis; type: functional, cell-based; details: dose 5.0 µg/ml
[19] = test system: RAW264.7; assay: Anti-inflammatory activity against mouse RAW264.7 cells assessed as reduction in LPS induced IL-1 beta level at 5 ug/ml by qRT-PCR analysis; type: functional, cell-based; details: dose 5.0 µg/ml
[20] = test system: RAW264.7; assay: Anti-inflammatory activity against mouse RAW264.7 cells assessed as reduction in LPS induced IL-6 level at 5 ug/ml by qRT-PCR analysis; type: functional, cell-based; details: dose 5.0 µg/ml
[21] = test system: RAW264.7; assay: Anti-inflammatory activity against mouse RAW264.7 cells assessed as reduction in influenza A virus induced TNF alpha level at 5 ug/ml by qRT- PCR; type: functional, cell-based; details: dose 5.0 µg/ml
[22] = test system: RAW264.7; assay: Anti-inflammatory activity against mouse RAW264.7 cells assessed as reduction in influenza A virus induced IL-1 beta level at 5 ug/ml by qRT- PCR; type: functional, cell-based; details: dose 5.0 µg/ml
[23] = test system: RAW264.7; assay: Anti-inflammatory activity against mouse RAW264.7 cells assessed as reduction in influenza A virus induced IL-6 level at 5 ug/ml by qRT- PCR; type: functional, cell-based; details: dose 5.0 µg/ml
[24] = test system: RAW264.7; assay: Anti-inflammatory activity against LPS induced mouse RAW264.7 cells assessed as suppression of NF kappa B expression level at 5 ug/ml by luciferase reporter assay; type: functional, cell-based; details: dose 5.0 µg/ml
[25] = test system: RAW264.7; assay: Anti-inflammatory activity against Influenza A virus (A/Puerto Rico/8/1934(H1N1)) induced mouse RAW264.7 cells assessed as suppression of NF kappa B expression level 5 ug/ml by luciferase reporter assay; type: functional, cell-based; details: dose 5.0 µg/ml
[26] = test system: Mus musculus; assay: Antiviral activity against Kunming mouse infected with Influenza A virus (A/Puerto Rico/8/1934(H1N1)) assessed as increase in body weight at 5 mg/kg, ip measured after 15 days (reference value: 178.7%); type: functional; details: time 15 day
[27] = target: Hemagglutinin (Influenza A virus, UniProt B4URE7); assay: Binding affinity to Influenza A Puerto Rico/8/1934/H1N1 hemagglutin assessed as dissociation constant by surface plasmon resonance assay
Sequence of Hemagglutinin (B4URE7 whole entry): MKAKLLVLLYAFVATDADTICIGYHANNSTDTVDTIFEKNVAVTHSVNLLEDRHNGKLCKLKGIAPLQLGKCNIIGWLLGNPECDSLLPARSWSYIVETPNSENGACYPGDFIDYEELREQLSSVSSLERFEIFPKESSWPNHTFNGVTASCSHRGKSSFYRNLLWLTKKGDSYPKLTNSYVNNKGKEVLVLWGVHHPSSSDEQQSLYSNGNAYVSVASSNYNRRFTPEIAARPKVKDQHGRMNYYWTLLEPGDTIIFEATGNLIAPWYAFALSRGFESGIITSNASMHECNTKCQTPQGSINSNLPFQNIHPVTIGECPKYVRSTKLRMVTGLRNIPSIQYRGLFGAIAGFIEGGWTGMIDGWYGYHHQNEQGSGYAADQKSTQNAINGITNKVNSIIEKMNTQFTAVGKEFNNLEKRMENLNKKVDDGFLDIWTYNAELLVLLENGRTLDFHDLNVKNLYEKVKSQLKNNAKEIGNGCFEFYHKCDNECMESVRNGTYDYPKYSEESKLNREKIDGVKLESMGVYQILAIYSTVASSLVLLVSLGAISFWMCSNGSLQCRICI

## NCCCC[C@H](NC(=O)Cc1ccc2ccccc2c1)C(=O)N[C@@H](CCCCN)C(=O)N[C@@H](Cc1c[nH]c2ccccc12)C(=O)N[C@@H](CCCCN)C(=O)NCCCC[C@H](NC(=O)[C@H](CCCCN)NC(=O)[C@H](Cc1c[nH]c2ccccc12)NC(=O)[C@H](CCCCN)NC(=O)[C@H](CCCCN)NC(=O)Cc1ccc2ccccc2c1)C(=O)NCCCC[C@H](NC(=O)[C@H](CCCCNC(=O)[C@H](CCCCN)NC(=O)[C@H](Cc1c[nH]c2ccccc12)NC(=O)[C@H](CCCCN)NC(=O)[C@H](CCCCN)NC(=O)Cc1ccc2ccccc2c1)NC(=O)[C@H](CCCCN)NC(=O)[C@H](Cc1c[nH]c2ccccc12)NC(=O)[C@H](CCCCN)NC(=O)[C@H](CCCCN)NC(=O)Cc1ccc2ccccc2c1)C(=O)NCC(=O)O (I: {Acetyl(2-naphthyl)}-KKWKK([Lys-Trp-Lys-Lys-Acetyl(2-naphthyl)])KG-OH / II: {Acetyl(2-naphthyl)}-KKWKK([Lys-Trp-Lys-Lys-Acetyl(2-naphthyl)]); amide I:6-II:C)
[1]
  survival at 5 mg/kg: 40%
[2]
  IC50: 340 nM
[3]
  IC50: 190 nM
[4]
  IC50: 240 nM
[5]
  IC50: 7690 nM
[6]
  CC50 at 1 h: 6670 nM
[7]
  CC50: 4410 nM
[8]
  selectivity ratio: 35.5
[9]
  Activity: Active
[10]
  Activity: Active
[11]
  IC50: 330 nM
[12]
  IC50: 230 nM
[13]
  IC50: 210 nM
[14]
  IC50: 220 nM
[15]
  Activity: Active
[16]
  Activity: Active
[17]
  Activity: Active
[18]
  Activity: Active
[19]
  Activity: Active
[20]
  Activity: Active
[21]
  Activity: Active
[22]
  Activity: Active
[23]
  Activity: Active
[24]
  Activity: Active
[25]
  Activity: Active
[26]
  Activity: 135.8%
[27]
  Kd: 0.00742 nM
